# Assay results published in article PMC7729195, “Pharmacodynamic Functions of Synthetic Derivatives for Treatment of Methicillin-Resistant Staphylococcus aureus (MRSA) and Mycobacterium tuberculosis” (Frontiers in Microbiology, 2020).
# Where “and” joins values, the source holds several entries; their conditions need not be identical. Equal values may be shown once.
# Legend:
# MRSA [1] = assay: Bacterial inhibition assay (resazurin), MIC against MRSA; format: cell-based, Staphylococcus aureus; parameters: MIC for MRSA: unit not given here; conditions: for MIC: Staphylococcus aureus, MRSA, synthetic compounds, 18 h incubation; for MIC for MRSA: Table 6 summary
# M. tuberculosis H37Rv [2] = assay: Bacterial inhibition assay (resazurin), MIC against M. tuberculosis; format: cell-based, Mycobacterium tuberculosis; parameters: MIC for TB. H37Rv: unit not given here; conditions: for MIC: Mycobacterium tuberculosis, H37RV, 168 h; for MIC for TB. H37Rv: Table 6 summary
# E. coli EC958 = assay: Bacterial inhibition assay (resazurin), MIC against E. coli; format: cell-based, Escherichia coli; conditions: synthetic compounds, 18 h incubation; for MIC: Escherichia coli, EC958
# P. aeruginosa PAO1 = assay: Bacterial inhibition assay (resazurin), MIC against P. aeruginosa; format: cell-based, Pseudomonas aeruginosa; conditions: synthetic compounds, 18 h incubation; for MIC: Pseudomonas aeruginosa, PAO1
# A549 = format: cell-based; conditions: human, 7 days
# Description: (§1) Human alveolar epithelial cells (A549), ([Giard et al., 1973]), Madin-Darby canine kidney epithelial cells (MDCK), ([Gaush et al., 1966]), human leukemia cells (THP-1) ([Tsuchiya et al., 1980]), human hepatocellular carcinoma cells (Hep-G2), ([Aden et al., 1979]), and human embryonic kidney cells 293 (HEK293) ([Graham et al., 1977]) were grown and differentiated in complete RPMI (Roswell Park Memorial Institute Medium) and DMEM (Dulbecco’s Modified Eagle’s medium) tissue culture media (RPMIc and DMEMc). To determine toxicity of the AIMS extract library, 2 × 10^5 of each cell type were added to a 96-well plate and left for 48 h at 37°C to adhere. Extract samples at a final concentration of 0.5 mg mL^–1 were added to the wells, then incubated for 7 days in a humidified 5% CO2 incubator at 37°C. Then resazurin (10 μL of 0.05% w/v) was added, and after 4 h, fluorescence measured as described previously. Cell viability was calculated as percentage fluorescence relative to untreated cells.
# HEK 293 = format: cell-based; conditions: human, 7 days
# Description: as §1
# HepG2 = format: cell-based; conditions: human, 7 days
# Description: as §1
# THP1 = format: cell-based; conditions: human, 7 days
# Description: as §1
# MRSA [3] = assay: Checkerboard assay with vancomycin against MRSA; format: cell-based, Staphylococcus aureus; conditions: for Drug–drug interactions / FIC / MIC50: MRSA; for Drug–drug interactions / FIC: compound with vancomycin; for MIC50: Staphylococcus aureus, compound alone
# M. tuberculosis H37Rv [4] = assay: Checkerboard assay with rifampicin against M. tuberculosis; format: cell-based, Mycobacterium tuberculosis; conditions: for Drug–drug interactions / FIC: M. tuberculosis, compound with rifampicin; for MIC50: Mycobacterium tuberculosis, H37RV, read-out: Compound alone MIC50 for M. tuberculosis; for Effect against M. tuberculosis in combination with rifampicin: rifampicin plus compound
# MRSA [5] = assay: Minimum bactericidal concentration (MBC) for MRSA; format: cell-based, Staphylococcus aureus; parameters: unit not given here; conditions: sub-culture on agar, 18 h
# TB. H37Rv = assay: Minimum bactericidal concentration (MBC) for TB; format: cell-based, Mycobacterium tuberculosis; parameters: unit not given here; conditions: sub-culture on agar, 7 days
# MRSA [6] = assay: Time-kill study against MRSA; format: cell-based, Staphylococcus aureus; conditions: for Effect of sub-inhibitory combination with vancomycin on MRSA growth: sub-inhibitory combinations with vancomycin; for Concentration at which killing was observed: time-kill, MRSA; for Bactericidal character: conclusion of time-kill studies
# M. tuberculosis = assay: Time-kill study against M. tuberculosis; format: cell-based, Mycobacterium tuberculosis; conditions: for Killing effect with rifampicin: rifampicin plus compound, day 7 of treatment; for Effect on bacterial viability: compound treatment, day 6
# Description: Time-kill experiments were performed by culturing MRSA and M. tuberculosis in liquid medium in the presence of six synthesized sample concentrations in doubling dilutions ranging from 8 to 0.001 × MIC and 2 × MIC for both bacteria, respectively. Growth curves were initially generated to confirm that bacteria would reach a stable early- to mid-log phase after 2 and 48 h of pre-incubation in antimicrobial-free both medium, respectively. Samples were taken in different incubation times after drug exposure at 0, 2, 4, 6, 8, and 24 h for MRSA and 24, 48 h, and 4 and 6 days for M. tuberculosis and then plated onto agar plates for CFU determination. The experiments were carried out in duplicate and repeated three times.
# resistant strains = assay: MIC against resistant strains; format: cell-based; conditions: read-out: MIC against resistant strains
# [7] = system: A549, THP-1, HepG2 and HEK 293 cell lines; format: cell-based, human
# Description: as §1
# [8] = synthetic compounds, 7 days incubation
# [9] = compound 12.5 μM plus vancomycin 50 μg mL^–1
smiles,measurement,setting,value
"CCCCCCCCN(CCCCCCCC)CCc1cn(-c2ccc3c4c(cccc24)C(=O)N(CC)C3=O)nn1 [Compound 18, 6-(4-(2-(Dioctylamino) Ethyl)-1H-1,2,3-Triazol-1-yl)-2-Ethyl-1H-Benzo[de]isoquinoline-1,3(2H)-Dione]",MIC,MRSA [1],12.5 ± 2 µM
same,MIC for MRSA,MRSA [1],12.5
same,MIC,M. tuberculosis H37Rv [2]; [8],12.5 ± 1 µM
same,MIC for TB. H37Rv,M. tuberculosis H37Rv [2],6.25
same,MIC,E. coli EC958,1.5 µM
same,MIC E. coli,E. coli EC958,1.5 ± 4.0 µM
same,MIC,P. aeruginosa PAO1,12.5 ± 0.8 µM
same,Minimum toxicity concentration of drug (MTC) A549,A549,>100 ± 6.0 µM
same,Minimum toxicity concentration of drug (MTC) HEK 293,HEK 293,3.1 ± 8.2 µM
same,Minimum toxicity concentration of drug (MTC) HepG2,HepG2,>100 ± 5.0 µM
same,Minimum toxicity concentration of drug (MTC) THP1,THP1,>100 ± 9.0 µM
same,Drug–drug interactions,MRSA [3],Indifference (0.25–4 indifferent or additive activity)
same,FIC,MRSA [3],1.2
same,MIC50,MRSA [3],12.5 µM
same,Drug–drug interactions,M. tuberculosis H37Rv [4],Indifference (0.25–4 indifferent or additive activity)
same,FIC,M. tuberculosis H37Rv [4],1
same,MIC50,M. tuberculosis H37Rv [4],6.25 µM
same,Effect against M. tuberculosis in combination with rifampicin,M. tuberculosis H37Rv [4],synergistic or bactericidal effects
same,MBC for MRSA,MRSA [5],12.5
same,MBC for TB. H37Rv,TB. H37Rv,50
same,Effect of sub-inhibitory combination with vancomycin on MRSA growth,MRSA [6],substantially inhibited growth of MRSA
same,Concentration at which killing was observed,MRSA [6],12.5 μg mL^–1
same,Killing effect with rifampicin,M. tuberculosis,comparable killing effects
same,MIC,resistant strains,2.2 µM
same,Toxicity against THP1 and/or HEK 293 cells,[7],some toxicity
"CCCCCCCCN(CCCCCCCC)c1ccc(C)cc1 [Compound 1b, N,N-Dioctyl-4-Methylaniline]",MIC,MRSA [1],100 ± 5.4 µM
same,MIC for MRSA,MRSA [1],100
same,MIC,M. tuberculosis H37Rv [2]; [8],25 ± 1 µM
same,MIC for TB. H37Rv,M. tuberculosis H37Rv [2],6.25
same,MIC,E. coli EC958,100 ± 1 µM
same,MIC,P. aeruginosa PAO1,100 ± 6.5 µM
same,Minimum toxicity concentration of drug (MTC) A549,A549,>100 ± 3.8 µM
same,Minimum toxicity concentration of drug (MTC) HEK 293,HEK 293,>100 ± 6.0 µM
same,Minimum toxicity concentration of drug (MTC) HepG2,HepG2,>100 ± 0.9 µM
same,Minimum toxicity concentration of drug (MTC) THP1,THP1,>100 ± 2.0 µM
same,Drug–drug interactions,MRSA [3],Indifference (0.25–4 indifferent or additive activity)
same,FIC,MRSA [3],1.2
same,MIC50,MRSA [3],100 µM
same,Drug–drug interactions,M. tuberculosis H37Rv [4],Indifference (0.25–4 indifferent or additive activity)
same,FIC,M. tuberculosis H37Rv [4],1.1
same,MIC50,M. tuberculosis H37Rv [4],6.25 µM
same,MBC for MRSA,MRSA [5],200
same,MBC for TB. H37Rv,TB. H37Rv,100
same,Time-kill effect against log-phase MRSA,MRSA [6]; 100 μM,rapidly reduced growth by 1 h post-treatment
same,Effect on regrowth of MRSA,MRSA [6]; [9],substantially reduced regrowth
same,Effect of sub-inhibitory combination with vancomycin on MRSA growth,MRSA [6],substantially inhibited growth of MRSA
same,Effect on bacterial viability,M. tuberculosis,significant reduction in bacterial viability
same,Toxicity against all four cell lines,[7],low toxicity
"CN[C@H](CC(C)C)C(=O)N[C@H]1C(=O)N[C@@H](CC(N)=O)C(=O)N[C@H]2C(=O)N[C@H]3C(=O)N[C@H](C(=O)N[C@H](C(=O)O)c4cc(O)cc(O)c4-c4cc3ccc4O)[C@H](O)c3ccc(c(Cl)c3)Oc3cc2cc(c3O[C@@H]2O[C@H](CO)[C@@H](O)[C@H](O)[C@H]2O[C@H]2C[C@](C)(N)[C@H](O)[C@H](C)O2)Oc2ccc(cc2Cl)[C@H]1O [vancomycin, Vancomycin, reference compound]",Viable count after regrowth,"MRSA [6]; 50 μg mL^–1, after 24h",106 CFU mL^–1
same,Time-kill effect against MRSA,MRSA [6]; 100 μg mL^–1 at 24 h,bactericidal effect
same,Time-kill effect against MRSA compared to untreated bacteria,MRSA [6]; concentrations up to 50 μg mL^–1,did not have an antibacterial effect
"CCCCCCCCN(CCCCCCCC)Cc1ccccc1 [Compound 2a, N-Benzyl-N-Octyloctan-1Amine]",MIC,MRSA [1],12.5 ± 0.7 µM
same,MIC for MRSA,MRSA [1],12.5
same,MIC,M. tuberculosis H37Rv [2]; [8],1.5 ± 1 µM
same,MIC for TB. H37Rv,M. tuberculosis H37Rv [2],1.5
same,MIC,E. coli EC958,50 ± 1 µM
same,MIC,P. aeruginosa PAO1,50 ± 1 µM
same,Minimum toxicity concentration of drug (MTC) A549,A549,>100 ± 1.0 µM
same,Minimum toxicity concentration of drug (MTC) HEK 293,HEK 293,50 ± 4.0 µM
same,Minimum toxicity concentration of drug (MTC) HepG2,HepG2,>100 ± 0.8 µM
same,Minimum toxicity concentration of drug (MTC) THP1,THP1,6.5 ± 0.8 µM
same,FIC,MRSA [3],0.328 and 0.33
same,MIC50,MRSA [3],12.5 µM
same,Activity against MRSA in combination with vancomycin,MRSA [3]; vancomycin plus compound,bactericidal activity
same,Drug–drug interactions,M. tuberculosis H37Rv [4],Indifference (0.25–4 indifferent or additive activity)
same,FIC,M. tuberculosis H37Rv [4],1.1
same,MIC50,M. tuberculosis H37Rv [4],1.5 µM
same,MBC for MRSA,MRSA [5],100
same,MBC for TB. H37Rv,TB. H37Rv,25
same,Time to bactericidal effect,MRSA [6]; [9],1 h
same,Net-growth of MRSA,"MRSA [6]; compound 1.5 to 0.1 μM plus vancomycin 50 μg mL^–1, at 24 h",up to 102 CFU mL^–1
same,Bactericidal character,MRSA [6],strongly bactericidal and concentration dependent
same,Effect of sub-inhibitory combination with vancomycin on MRSA growth,MRSA [6],substantially inhibited growth of MRSA
same,Effect on bacterial viability,M. tuberculosis,significant reduction in bacterial viability
same,Toxicity against THP1 and/or HEK 293 cells,[7],some toxicity
"CCCCCCCCCCN(CCCCCC)CCCCCC [Compound 3, N,N-Dihexyldecan-1-Amine]",MIC,MRSA [1],12.5 ± 1 µM
same,MIC for MRSA,MRSA [1],12.5
same,MIC,M. tuberculosis H37Rv [2]; [8],3.1 µM
same,MIC for TB. H37Rv,M. tuberculosis H37Rv [2],1.5
same,MIC M. tuberculosis,M. tuberculosis H37Rv [2]; [8],3.1 ± 0.7 µM
same,MIC,E. coli EC958,6.2 µM
same,MIC E. coli,E. coli EC958,6.2 ± 1.0 µM
same,MIC,P. aeruginosa PAO1,3.1 µM
same,MIC P. aeruginosa,P. aeruginosa PAO1,3.1 ± 5.0 µM
same,Minimum toxicity concentration of drug (MTC) A549,A549,>100 ± 2.0 µM
same,Minimum toxicity concentration of drug (MTC) HEK 293,HEK 293,25 ± 2.0 µM
same,Minimum toxicity concentration of drug (MTC) HepG2,HepG2,>100 ± 1.0 µM
same,Minimum toxicity concentration of drug (MTC) THP1,THP1,50 ± 5.0 µM
same,Drug–drug interactions,MRSA [3],Indifference (0.25–4 indifferent or additive activity)
same,FIC,MRSA [3],1.2
same,MIC50,MRSA [3],12.5 µM
same,FIC,M. tuberculosis H37Rv [4],0.4
same,MIC50,M. tuberculosis H37Rv [4],1.5 µM
same,Effect against M. tuberculosis in combination with rifampicin,M. tuberculosis H37Rv [4],synergistic or bactericidal effects
same,MBC for MRSA,MRSA [5],12.5
same,MBC for TB. H37Rv,TB. H37Rv,6.25
same,Bactericidal character,MRSA [6],strongly bactericidal and concentration dependent
same,Effect of sub-inhibitory combination with vancomycin on MRSA growth,MRSA [6],substantially inhibited growth of MRSA
same,Concentration at which killing was observed,MRSA [6],12.5 μg mL^–1
same,Effect on bacterial viability,M. tuberculosis,significant reduction in bacterial viability
same,Killing effect with rifampicin,M. tuberculosis,comparable killing effects
same,Toxicity against THP1 and/or HEK 293 cells,[7],some toxicity
